Test results from US10945433B2, “Method for treating coffee rust, citrus black spot, citrus scab and banana black sigatoka diseases” (Bayer CropScience Aktiengesellschaft, priority 2015, dated 2021).
Each block holds one compound with its values, some of them ahead of it.

Columns and labels:
Mycosphaerella fijiensis = test: Control of Black Sigatoka on banana crop, field trials; assay type: in vivo; details: for Number healthy Leaves 25DAT13: Trial B, untreated 8.7; for Number healthy Leaves 25DAT13 / Number healthy Leaves 2DAT7: per banana plant at end of trial; for Number healthy Leaves 2DAT7: Trial A, untreated 8.5
Procedure: Two field trials were implemented in 2013 in Costa Rica and Philippines to evaluate the performance of compounds against Mycosphaerella fijiensis infection on Banana.
A typical fungicide formulation containing 100 g of compound per liter was applied every 7 to 12 days in consecutive foliar sprays. The trials were carried out according to standard experimental practice with spay adjuvant and mineral oil used in tank mix as it is usual on banana plantation in each country.
Data are expressed in Number of healthy leaves present at the end of the trial on each Banana plant (more leaves present mean better quantity and quality of harvest).

Guignardia citricarpa = test: Control of black spot (Guignardia citricarpa) on citrus crop, field trials; assay type: in vivo; details: 2000 to 3000 L/Ha
Description: (§1) Five field trials were implemented in South Africa, Brazil and Japan in 2013 and 2014 to evaluate the performance of compounds against two main diseases having high effect on marketable yield: Elsinoe fawcettii and Guignardia citricarpa are hosted by many citrus species. Both are able to infest fruits and both are quarantine pathogens limiting the exportation outside of the growing countries. The protection against these two pathogens gives a clear advantage for farmers to be present on the export market.
(§2) The trials were carried out according to standard experimental practice to protect the canopy including fruits in each country. A typical fungicide formulation containing 100 g of compound per liter was applied in consecutive foliar sprays at 5 to 6 occasions every month to control black spot and at 1 to 3 occasions every 14 days to control Scab infections. Spray volumes vary from 2000 L to 3000 L/Ha.

Elsinoe fawcettii = test: Control of scab (Elsinoe fawcettii) on citrus crop, field trials; assay type: in vivo; details: 3000 L/Ha
Description: as §1, §2

Hemileia vastatrix = test: Control of rust (Hemileia vastatrix) on coffee crop, field trials; assay type: in vivo; details: 50 g a.i./ha, coffee leaves, foliar sprays, vs untreated
Procedure: Four field trials were implemented in Brazil in 2013 and 2014 to evaluate the performance of compounds against Hemileia vastatrix on Coffee.
The trials were carried out according to standard experimental practice to protect the canopy from the rust, responsible to defoliation and then yield losses. A typical fungicide formulation containing 100 g of compound per liter was applied in consecutive foliar sprays at 3 occasions every 30 to 50 days in most of the trials. Spray volumes vary from 400 L to 500 L/Ha.
Assessments were realized on leaves—Data are expressed in % efficacy against rust on leaves compared to untreated plants.

[1] = log P determination by HPLC on reversed-phase column (EEC Directive 79/831 Annex V.A8); assay type: physicochemical
Procedure: In table 1, the log P values were determined in accordance with EEC Directive 79/831 Annex V.A8 by HPLC (High Performance Liquid Chromatography) on a reversed-phase column (C 18), using the method described below:
Temperature: 40° C.; Mobile phases: 0.1% aqueous formic acid and acetonitrile; linear gradient from 10% acetonitrile to 90% acetonitrile.
Calibration was carried out using unbranched alkan-2-ones (comprising 3 to 16 carbon atoms) with known log P values (determination of the log P values by the retention times using linear interpolation between two successive alkanones). lambda-max-values were determined using UV-spectra from 200 nm to 400 nm and the peak values of the chromatographic signals.

Compound: O=C(Nc1ccccc1-c1ccc(Cl)cc1)c1cccnc1Cl [Boscalid, reference compound]
Number healthy Leaves 25DAT13 (Mycosphaerella fijiensis; 150 g a.i./ha): 13.1

Compound: CC(C)c1ccc(Cl)cc1CN(C(=O)c1c(C(F)F)nn(C)c1F)C1CC1 [Compound A5, N-(5-chloro-2-isopropylbenzyl)-N-cyclopropyl-3-(difluoromethyl)-5-fluoro-1-methyl-1H-pyrazole-4-carboxamide]
average gain in leaves per plant (Mycosphaerella fijiensis; 6.25 g ai/ha, banana, Black Sigatoka): about +3 leaves per plant
Number healthy Leaves 2DAT7 (Mycosphaerella fijiensis; 6.25 g a.i./ha): 11.5
Number healthy Leaves 2DAT7 (Mycosphaerella fijiensis; 12.5 g a.i./ha): 12.2
Number healthy Leaves 2DAT7 (Mycosphaerella fijiensis; 25 g a.i./ha): 12
Number healthy Leaves 25DAT13 (Mycosphaerella fijiensis; 6.25 g a.i./ha): 13.4
Number healthy Leaves 25DAT13 (Mycosphaerella fijiensis; 12.5 g a.i./ha): 14.4
Number healthy Leaves 25DAT13 (Mycosphaerella fijiensis; 25 g a.i./ha): 16.2
% Efficacy (Abbott) (Guignardia citricarpa; Trial A, 10 g a.i./100 L): 73%
% Efficacy (Abbott) (Guignardia citricarpa; Trial A, 15 g a.i./100 L): 70%
% Efficacy (Abbott) (Guignardia citricarpa; Trial B, 10 g a.i./100 L): 72%
% Efficacy (Abbott) (Guignardia citricarpa; Trial B, 15 g a.i./100 L): 83%
% Efficacy (Abbott) (Guignardia citricarpa; Trial C, 10 g a.i./100 L): 91.3%
% Efficacy (Abbott) (Guignardia citricarpa; Trial C, 15 g a.i./100 L): 93.9%
% Efficacy (Abbott) (Elsinoe fawcettii; Trial A, 2.5 g a.i./100 L): 96%
% Efficacy (Abbott) (Elsinoe fawcettii; Trial A, 5 g a.i./100 L): 95%
% Efficacy (Abbott) (Elsinoe fawcettii; Trial B, 2.5 g a.i./100 L): 92%
% Efficacy (Abbott) (Elsinoe fawcettii; Trial B, 5 g a.i./100 L): 70%
% Efficacy (Abbott) (Hemileia vastatrix; Trial A): 84%
% Efficacy (Abbott) (Hemileia vastatrix; Trial B): 61%
% Efficacy (Abbott) (Hemileia vastatrix; Trial C): 95%
% Efficacy (Abbott) (Hemileia vastatrix; Trial D): 73%

chromatographic logP ([1]; reversed-phase C18 HPLC column, HPLC, reversed-phase C 18, 40° C., 0.1% aqueous formic acid and acetonitrile gradient): 3.14
Compound: CCc1ccc(F)cc1CN(C(=O)c1c(C(F)F)nn(C)c1F)C1CC1 [Compound A6, N-cyclopropyl-3-(difluoromethyl)-N-(2-ethyl-5-fluorobenzyl)-5-fluoro-1-methyl-1H-pyrazole-4-carboxamide]

logP [1]: 4.36
Compound: N-cyclopropyl-3-(difluoromethyl)-5-fluoro-N-(2-isopropylbenzyl)-1-methyl-1H-pyrazole-4-carbothio-amide [Compound A20]
